Reference: the NIST ThermoML archive (doi:10.1021/je060271a)

Conditions: 323.14 K, Liquid, Vibrating tube method

CCCCCCC(=O)OCC(COC(=O)CCCCCC)(COC(=O)CCCCCC)COC(=O)CCCCCC [pentaerythritol tetraheptanoate]
Conditions	mass density [kg/m3]
1867.1 kPa	956.8
1879.2 kPa	956.9
1889.3 kPa	956.8
1901.4 kPa	957
1911.9 kPa	956.9
1922.6 kPa	956.9
1933.4 kPa	956.9
1945.7 kPa	956.9
1956.8 kPa	957
1967.4 kPa	957
1980.8 kPa	957
1992.6 kPa	957
2003.7 kPa	957.1
2015.1 kPa	956.9
2026.2 kPa	956.9
2040.3 kPa	957.1
2051.7 kPa	957
2063 kPa	957
2075 kPa	956.9
2089.2 kPa	957.1
2101.9 kPa	957
2226.1 kPa	957
2302.3 kPa	957.1
2543.1 kPa	957.3
2581.9 kPa	957.3
2614.7 kPa	957.4
2750.1 kPa	957.5
2958.7 kPa	957.6
3185.1 kPa	957.8
3256.6 kPa	957.9
3279.3 kPa	957.8
3302.3 kPa	957.9
3329.7 kPa	957.8
3352.8 kPa	957.8
3377 kPa	957.9
3405.8 kPa	957.9
3429.7 kPa	958.1
3454.8 kPa	958
3479.6 kPa	958
3509.6 kPa	958
3534.6 kPa	958.1
3565.2 kPa	957.9
3591.4 kPa	958.1
3617.6 kPa	958
3974.4 kPa	958.4
4012.4 kPa	958.4
4041.1 kPa	958.3
4057.6 kPa	958.4
4063.1 kPa	958.4
4064.9 kPa	958.3
4065.5 kPa	958.5
4066.2 kPa	958.5
4067.3 kPa	958.5
4068.5 kPa	958.5
4069.4 kPa	958.6
4069.5 kPa	958.5
4070.6 kPa	958.4
4070.9 kPa	958.4
4071.6 kPa	958.4
4087 kPa	958.4
4104.9 kPa	958.6
4128 kPa	958.5
4142.2 kPa	958.4
4163.9 kPa	958.4
4182.2 kPa	958.4
4200.8 kPa	958.5
4223.1 kPa	958.5
4242.2 kPa	958.5
4261 kPa	958.6
4283.7 kPa	958.6
4303.6 kPa	958.5
4323.2 kPa	958.5
4347.4 kPa	958.6
4367.2 kPa	958.6
4384.2 kPa	958.6
4401.5 kPa	958.6
4419 kPa	958.8
4440.1 kPa	958.7
4458.6 kPa	958.6
4475.9 kPa	958.6
4487.7 kPa	958.7
4498.8 kPa	958.7
4507.3 kPa	958.8
4516.1 kPa	958.6
4528.2 kPa	958.7
4546.9 kPa	958.7
4567.4 kPa	958.6
4588 kPa	958.7
4612.9 kPa	958.7
4634.2 kPa	958.7
4656 kPa	958.8
4677.4 kPa	958.8
4703.4 kPa	958.9
4725.2 kPa	958.9
4747.6 kPa	958.9
4774 kPa	958.9
4796.4 kPa	958.9
4819 kPa	958.9
4845.9 kPa	958.9
4869.6 kPa	959
4893.1 kPa	959
4921 kPa	959
4945 kPa	958.9
4968.9 kPa	959
4997.5 kPa	959
5022.2 kPa	959
5047.1 kPa	959.1
5072.5 kPa	959.1
5103.3 kPa	959.1
5129.3 kPa	959.1
5156.3 kPa	959.1
5189.2 kPa	959.2
5217.4 kPa	959.1
5240.4 kPa	959.1
5260.4 kPa	959.1
5280.7 kPa	959.4
5304 kPa	959.2
5323.4 kPa	959.2
5347.3 kPa	959.4
5367.7 kPa	959.3
5388.5 kPa	959.3
5408.9 kPa	959.3
5429.5 kPa	959.2
5454.7 kPa	959.2
5475.8 kPa	959.3
5497.3 kPa	959.3
5522.7 kPa	959.4
5543.9 kPa	959.5
5565.6 kPa	959.4
5591.3 kPa	959.3
5613.3 kPa	959.5
5635.4 kPa	959.4
5662.4 kPa	959.4
5684.7 kPa	959.6
5707.9 kPa	959.4
5735.2 kPa	959.5
5758 kPa	959.5
5781.4 kPa	959.5
5804.9 kPa	959.7
5833.6 kPa	959.6
5857.5 kPa	959.6
5886 kPa	959.5
5910.2 kPa	959.7
5935.4 kPa	959.7
5964.8 kPa	959.7
5989.9 kPa	959.7
6015.7 kPa	959.6
6041.2 kPa	959.8
6072.5 kPa	959.7
6099.5 kPa	959.8
6127 kPa	959.7
6154.7 kPa	959.8
6180.8 kPa	959.8
6202.1 kPa	959.8
6224.2 kPa	959.8
6246.2 kPa	959.9
6272.6 kPa	959.8
6294.4 kPa	960
6316.9 kPa	959.8
6344 kPa	959.8
6366.6 kPa	959.9
6393.8 kPa	960
6417.3 kPa	960
6441.6 kPa	959.9
6466 kPa	960
6489.5 kPa	960.2
6513.7 kPa	960
6542.9 kPa	960
6566.4 kPa	960
6595.3 kPa	960.1
6619.5 kPa	960.1
6644.3 kPa	960
6674.1 kPa	960.1
6699.1 kPa	960.1
6724.7 kPa	960.1
6755.6 kPa	960.2
6782.2 kPa	960.3
6809 kPa	960.2
6835.2 kPa	960.2
6861.8 kPa	960.1
6893.8 kPa	960.2
6920.9 kPa	960.2
6948.7 kPa	960.3
6976.5 kPa	960.3
7009.5 kPa	960.4
7037.3 kPa	960.3
7072 kPa	960.4
7101 kPa	960.5
7131.4 kPa	960.4
7161.8 kPa	960.4
7190 kPa	960.5
7218.1 kPa	960.4
7240 kPa	960.6
7262.7 kPa	960.5
7289.6 kPa	960.7
7312 kPa	960.5
7334.9 kPa	960.6
7357.8 kPa	960.5
7385.4 kPa	960.6
7408.7 kPa	960.6
7433.1 kPa	960.6
7457.4 kPa	960.6
7486.4 kPa	960.7
7510.8 kPa	960.7
7534.2 kPa	960.6
7558.2 kPa	960.7
7587.6 kPa	960.7
7611.9 kPa	960.8
7637.3 kPa	960.8
7666.8 kPa	960.8
7692.5 kPa	960.7
7717.9 kPa	960.9
7743.3 kPa	960.9
7773.8 kPa	960.8
7799.7 kPa	960.7
7826.1 kPa	960.9
7857.2 kPa	961
7883.6 kPa	960.9
7910 kPa	961
7941.6 kPa	961
7968.3 kPa	961
7995.6 kPa	961
8028.4 kPa	961
8056 kPa	961.1
